Assay results from patent US20170157161A1, “Anti-Cancer Therapies” (Threshold Pharmaceuticals, Inc., priority 2015, published 2017).

Key:
[1] = system: pancreatic cancer cell lines; conditions: in vitro; cited from earlier work
[2] = system: advanced pancreatic cancer; conditions: patients with advanced pancreatic cancer; cited from earlier work
[3] = system: HS766-T human pancreatic cancer cells; experiment: HS766-T human pancreatic tumor model in NMRI nu/nu mice; format: in vivo
Method: (§1) A combination of glufosfamide and gemcitabine was administered daily for 7 days to female NMRI nu/nu mice that were carrying tumors derived from HS766-T or As-PC-1 human pancreatic cancer cells. Mice were administered doses of vehicle control (0.9% sodium chloride solution, i.v.), gemcitabine (i.p.), glufosfamide (i.v.) or gemcitabine/glufosfamide combinations once daily for 7 consecutive days. A dose of 1.25 mg/kg was used as the standard dose for gemcitabine throughout the study.

[4] = system: As-PC-1 human pancreatic cancer cells; experiment: As-PC-1 human pancreatic tumor model in NMRI nu/nu mice; format: in vivo; conditions: glufosfamide i.v. and gemcitabine 1.25 mg/kg i.p., alone or in combination, once daily for 7 days
Method: as §1

[5] = system: MiPaca2 human pancreatic cancer cells; experiment: MiPaca2 human pancreatic tumor model in nude mice; format: in vivo
Method: A combination of glufosfamide and gemcitabine was administered to nude mice that were carrying tumors derived from type MiPaca2 human pancreatic cancer cells. Mice were administered doses of vehicle control, gemcitabine, glufosfamide, or gemcitabine/glufosfamide combinations as tabulated in Table 1 below (10 mice/group). Glufosfamide was administered i.v., daily for 14 days (Groups 1-4 and 7-12). Gemcitabine was administered at 300 mg/kg, i.p., once a week for three weeks (Groups 6 and 10-12). Gemcitabine was administered at 150 mg/kg, i.p., twice a week for three weeks (Groups 5 and 7-9).

Structure (SMILES)	activity against pancreatic cancer cell lines [1]	activity in patients [2]	inhibitory effect on tumor progression ([3]; gemcitabine alone 1.25 mg/kg i.p. once daily for 7 days)	inhibitory effect on tumor growth [4]	deaths of the animals ([5]; Group 5: gemcitabine 150 mg/kg i.p. twice a week for three weeks)	reduction in tumor size ([5]; Group 6: gemcitabine 300 mg/kg i.p. once a week for three weeks)	onset of tumor growth ([3]; 10 mg/kg glufosfamide i.v. once daily for 7 days, compared with gemcitabine alone or vehicle control)	reduction in tumor size ([5]; Group 3: glufosfamide 30 mg/kg i.v. daily for 14 days)	reduction in tumor size ([5]; Group 4: glufosfamide 100 mg/kg i.v. daily for 14 days)
Nc1nc2[nH]cc(CCc3ccc(C(=O)N[C@@H](CCC(=O)O)C(=O)O)cc3)c2c(=O)[nH]1 [Pemetrexed]	active against pancreatic cancer cell lines in vitro	has shown activity in patients with advanced pancreatic cancer	–	–	–	–	–	–	–
Nc1ccn([C@@H]2O[C@H](CO)[C@@H](O)C2(F)F)c(=O)n1 [gemcitabine, 2′-deoxy-2′,2′-difluoro-cytidine]	–	–	only a marginal inhibitory effect on tumor progression	no apparent inhibitory effect on tumor growth	rapid deaths of the animals	Approximately 50%	–	–	–
O=P(NCCCl)(NCCCl)O[C@@H]1O[C@H](CO)[C@@H](O)[C@H](O)[C@H]1O [glufosfamide, β-D-glucosyl-ifosfamide mustard]	–	–	–	no apparent inhibitory effect on tumor growth	–	–	dramatic delay in the onset of tumor growth	modest reduction in tumor size	modest reduction in tumor size
